Experimental data reported in patent US20100330116A1, “LIVE […] USE AS VACCINE” (The University of Queensland, priority 2004, published 2010).

How the values were obtained:
FD436 [1] = assay: MBC determination of nalidixic acid and rifampicin (growth on SBA plates); conditions: TSB, then SBA 37° C., 48 h
FD436 [2] = assay: MIC determination of nalidixic acid and rifampicin (broth dilution, Bioscreen turbidity); conditions: TSB, 37° C., 24 h

| Compound | MBC for FD436 (FD436 [1]) | MIC for FD436 (FD436 [2]) |
| --- | --- | --- |
| CCn1cc(C(=O)O)c(=O)c2ccc(C)nc21 [Nalidixic acid] | 0.00125 % (w/v) | 0.00125 % (w/v) |
| CO[C@H]1/C=C/O[C@@]2(C)Oc3c(C)c(O)c4c(O)c(c(/C=N/N5CCN(C)CC5)c(O)c4c3C2=O)NC(=O)/C(C)=C\C=C\[C@H](C)[C@H](O)[C@@H](C)[C@@H](O)[C@@H](C)[C@H](OC(C)=O)[C@@H]1C [Rifampicin] | 0.0025 % (w/v) | 0.0025 % (w/v) |
